Reference: article PMC5894102 (Journal of medicinal chemistry, 2017)

Columns and labels:
in vitro = details: human, A673 cells
CYP = details: cited from earlier work
[1] = cited from earlier work
[2] = molecular target: human lactate dehydrogenase 5 (LDHA) (Homo sapiens, UniProt P00338); experiment: LDHA biochemical assay
LDHA = LDHA (Homo sapiens, UniProt P00338); assay type: cell-based
[3] = Mouse pharmacokinetic study; assay type: in vivo, CD1 mice; details: male, CD1, mouse, plasma, iv, 2 mg/kg
MiaPaCa-2 cells = details: 120 hours

Work on COc1ncc(-c2ccc3c(Nc4cc(Oc5cc(F)cc(F)c5)cc(C(=O)O)c4)c(S(=O)(=O)NC4CC4)cnc3c2)c(OC)n1 [Analog 2] yielded an IC50 at 48 h (in vitro) of over 57 µM.
In the case of O=C(O)c1csc(-n2nc(-c3ccccc3)cc2C(F)(F)F)n1 [Analog 5], the CYP inhibition (CYP) is given as “no appreciable CYP inhibition” and the “stability in human plasma” value [1] is given as “stable in human plasma”.
With O=C(O)c1csc(-n2nc(-c3ccccc3)cc2O)n1 [Analog 11] the “improvement in potency on replacing CF3 by OH” value [2] was over 100 fold.
Molecule O=C(O)c1csc(-n2nc(-c3ccc(F)cc3)cc2O)n1 [Analog 16] has an IC50 [2] of 0.15 µM.
Work on NS(=O)(=O)c1ccc(Cc2cn(-c3nc(C(=O)O)cs3)nc2-c2ccc(F)c(F)c2)cc1 [Analog 42] yielded an IC50 at 48 h (in vitro) of over 57 µM.
In the case of NS(=O)(=O)c1ccc(Cc2cn(-c3nc(C(=O)O)cs3)nc2-c2cccc(-c3ccccc3)c2)cc1 [Analog 44], the “CETSA: Cellular LDHA stabilization Max stab. (norm'd)” value (LDHA; A673 cells, Western blot band intensity scaled to maximum response of 44) is reported as 100.0.
NS(=O)(=O)c1ccc(Cc2c(-c3cccc(-c4ccccc4)c3)nn(-c3nc(C(=O)O)cs3)c2C2CC2)cc1 [Analog 61] gave a half-life [3] of 51 min.
With NS(=O)(=O)c1ccc(Cc2c(-c3ccccc3)nn(-c3nc(C(=O)O)cs3)c2CC2CC2)cc1 [Analog 62] the “CETSA: Cellular LDHA stabilization AUC (norm'd)” value (LDHA) was 100.00.
In the case of NS(=O)(=O)c1ccc(Cc2c(-c3cccc(-c4ccccc4)c3)nn(-c3nc(C(=O)O)cs3)c2CC2CC2)cc1 [Analog 63], the “concentration with nearly complete arrest of cell growth” value (MiaPaCa-2 cells) is reported as 20 µM and the “lowest concentration with effects on cellular proliferation” value (MiaPaCa-2 cells; dose-response) is reported as 250 nM.
